Laboratory results published in patent US11680086B2, “Lipopeptide for potently inhibiting HIV, derivative thereof, pharmaceutical composition thereof and use thereof” (Institute of Pathogen Biology, Chinese Academy of Medical …, priority 2017, dated 2023).
Where two headings read alike, the source gives them in different places. Peptide text beside a SMILES is read from it. * marks the point of attachment. Palmitoyl = CCCCCCCCCCCCCCCC(=O)*

Tests used:
[1] = test system: HIV-1 strain NL4-3 pseudovirus (D36G mutant); format: cell-based
Experimental: (§1) The supernatant was discarded from the wells. […] Inhibition rate (%) and IC50 value were calculated.

[2] = test system: 35 HIV-1 pseudoviruses (subtypes A, B, B', C, G, A/C, A/E, B/C); details: for IC50: read-out: average IC50 for inhibition of various types of HIV-1 pseudoviruses, average over 35 pseudoviruses
From the text: HIV-1 pseudovirus-mediated cell entry inhibition assay: basic steps included: (1) Preparation of HIV-1 pseudovirus: the 293T cells were co-transfected with a plasmid expressing the envelope protein (Env) of HIV-1 strain NL4-3 (i.e., a recombinant expression plasmid obtained by inserting the gene encoding the envelope protein (ENV) of the D36G mutant of the HIV-1 strain NL4-3 in the Table 2 of the Reference 14 listed in the Background Art into the vector pcDNA3.1(−)) and the HIV-1 backbone plasmid pSG3Δenv (provided by the AIDS Reagent Program of National Institutes of Health (NIH), catalog number: 11051) by using a cell transfection reagent, incubated in a cell incubator of 37° C. and 5% CO2 for 6 hours, and then the medium was changed, and the cells were further incubated for 48 hours. The cell culture supernatant containing pseudovirus particles was pipetted and filtered with a 0.45 μm filter to collect the supernatant, then 20% fetal bovine serum (FBS) was added thereto, the final solution was transferred to a polypropylene tube, and stored at −80° C. for ready for use or directly subjected to virus titration. (2) Titration of HIV-1 pseudovirus: the viruses were diluted by 5 folds in a 96-well plate, and 4 replicate wells with 8 gradients were set to a final volume of 100 microliters. The TZM-b1 cells were trypsinized and counted, and the cells were diluted to 1×10^5 cells/ml with DMEM complete medium; 100 μl of cells dilution (containing 15 μg/ml DEAE-dextran) per well were added and cultured at 37° C. and 5% CO2 for 48 hours. The 96-well plate was then taken from the cell culture incubator. The supernatant was discarded from the wells. To each well, 30 μl of a cell lysate was added, and after 10 minutes, 100 μl of a luciferase detection reagent was added. 100 μl of liquid was pipetted from each well and added to a corresponding 96-well white plate, and the luminescence values were read by a microplate photometer. The virus titer was calculated by the Reed-Muench method. (3) Antiviral activity assay: the test substance was dissolved in DMSO and diluted with a cell culture solution by 3 folds, and placed in a 96-well plate at a final volume of […]. 50 μl of a DMEM medium was used in place of the test substance as a negative control. To each well, 100 μl of TZM-b1 target cells solution (containing 15 μg/ml DEAE-dextran) at a concentration of 1×10^5 cells/ml was added, and then 50 μl (corresponding to 100 TCID50 per well) of the HIV-1 pseudovirus obtained above was added. After incubation at 37° C. and 5% CO2 for 48 hours, the relative light units (RLU) of each well were determined by using a luciferase detection reagent (Promega). Inhibition rate (%) and IC50 value were calculated.
Among them, the A, B and C subtypes were the main viruses causing AIDS epidemic in the world, while B/C and A/E recombinant viruses were the main viruses in China. […] Among the Env expression plasmids used for the preparation of pseudoviral, except that the Env expression plasmids used for preparation of PVO, Du156 and CAP 210.2.00.E8 were obtained from the AIDS Reagent Program of NIH in the United states, other plasmids were preserved by the laboratory of Prof. He Yuxian, Institute of Pathogen Biology, Chinese Academy of Medical Sciences, please see the References 13, 14 and 18 listed in the Background Art and articles of Chong et al. (Chong H, Yao X, Zhang C, Cai L, Cui S, Wang Y, He Y. Biophysical property and broad anti-HIV activity of Albuvirtide, a 3-maleimimidoproprotionic acid-modified peptide fusion inhibitor. PLoS One, 2012; 7 (3): e 32599). The preparation of the pseudovirus and the antiviral assay were the same as those in Example 2.1 of Example 2 (HIV-1 pseudovirus-mediated cell entry inhibition assay).

[3] = test system: NL4-3WT pseudovirus; details: wild type NL4-3WT
From the text: HIV-1 pseudovirus-mediated cell entry inhibition assay: basic steps included: (1) Preparation of HIV-1 pseudovirus: the 293T cells were co-transfected with a plasmid expressing the envelope protein (Env) of HIV-1 strain NL4-3 (i.e., a recombinant expression plasmid obtained by inserting the gene encoding the envelope protein (ENV) of the D36G mutant of the HIV-1 strain NL4-3 in the Table 2 of the Reference 14 listed in the Background Art into the vector pcDNA3.1(−)) and the HIV-1 backbone plasmid pSG3Δenv (provided by the AIDS Reagent Program of National Institutes of Health (NIH), catalog number: 11051) by using a cell transfection reagent, incubated in a cell incubator of 37° C. and 5% CO2 for 6 hours, and then the medium was changed, and the cells were further incubated for 48 hours. The cell culture supernatant containing pseudovirus particles was pipetted and filtered with a 0.45 μm filter to collect the supernatant, then 20% fetal bovine serum (FBS) was added thereto, the final solution was transferred to a polypropylene tube, and stored at −80° C. for ready for use or directly subjected to virus titration. […] The TZM-b1 cells were trypsinized and counted, and the cells were diluted to 1×10^5 cells/ml with DMEM complete medium; 100 μl of cells dilution (containing 15 μg/ml DEAE-dextran) per well were added and cultured at 37° C. and 5% CO2 for 48 hours. […]

[4] = test system: NL4-3 pseudovirus carrying T-20 resistance mutation site of NHR; experiment: inhibition of T-20 resistant strains; format: cell-based, HIV-1; details: strains with single or double mutations
[5] = test system: HIV-2 strain ROD (infectious); experiment: inhibition of HIV-2; format: cell-based; details: HIV-2 ROD
Experimental: (§2) Inhibition rate (%) and IC50 value were calculated.
(§3) In order to further reflect the antiviral advantages of the potent lipopeptides of the present invention, their inhibitory activity against HIV-2 and SIV was determined in the example. The methods of antiviral activity assays used were described in the literatures published by the present inventors (see the References 13 and 30 listed in the Background Art). The molecular cloning plasmid pROD of the HIV-2 strain ROD (HIV-2ROD) was kindly provided by Professor Nuno Taveira from the University of Lisbon, Portugal, and the plasmids expressing the SIV strain SIVpbj (SIVPBJ) and SIV239 envelope proteins (pSIVpbj-Env and pSIV239, respectively) were kindly provided by Professor Xu Jianqing from the Fudan University. The preparation of the infectious ROD was the same as that of the infectious JRCSF in the above section 2.1, and the pseudoviruses SIVpbj and SIV239 were prepared by a method same as that described in the above Examples 2 and 3.

[6] = test system: SIV pseudoviruses SIVpbj and SIV239; experiment: inhibition of SIV pseudoviruses; format: cell-based
Experimental: as §1, §3

[7] = test system: HIV-1 strain NL4-3 (NL4-3D36G); experiment: antiviral activity in serum of macaque after subcutaneous injection; format: in vivo, macaques (rhesus monkeys); details: 3 mg/kg subcutaneous
Experimental: The specific method was as follows: 6 experimental macaques (rhesus monkeys) were selected, half male and half female, aged 3-4 years old, weighing 3.4-4.7 kg. […] The serum was separated according to a conventional method. The injection interval of each inhibitor was more than 2 weeks to ensure that there was no residue of the previous analyte. The serum activity against the HIV-1 strain NL4-3 (NL4-3D36G) was measured according to the experimental method of the pseudovirus-based assay in the above examples. The serum was diluted by 3 folds. […] Therefore, the lipopeptides of the present invention were not only potent but also were long-lasting effective.

[8] = molecular target: N39 (NHR-derived polypeptide of gp41) (Human immunodeficiency virus type 1 group M subtype B, UniProt P04578); format: binding, HIV-1; details: 10 μM each, PBS pH 7.2
Chain of N39 (NHR-derived polypeptide of gp41) (P04578 528-566): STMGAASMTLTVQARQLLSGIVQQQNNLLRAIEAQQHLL
Experimental: (§4) The circular dichroism spectrophotometer was Jasco-815 by JASCO Inc., and the assay method was referred to the papers published by the inventors (see the References 18 and 30 listed in the Background Art). […] The N39 and an inhibitor were separately dissolved in a phosphate buffered saline (PBS) to prepare a PBS solution (pH 7.2) of a concentration of 20 μM. The N39 was mixed with an inhibitor at a volume ratio of 1:1 (final concentration of 10 μM for each), the mixed sample was placed at 37° C. for 30 minutes to fully react, and then the helix content and Tm value of the resultant complex were measured by the circular dichroism spectrophotometer. The scan wavelength range of the device was 195-260 nm with a wavelength interval of 1 nm, and the values measured by scanning for three times were averaged. Based on the CD signals, the interaction between the polypeptides and the helix content were determined. Then, the sample for CD signal measurement was transferred to the temperature scanning sample cell, the program of the CD device was set to temperature scanning with a detection wavelength of 220 nm and scanning range of 20-98° C., and the program scan was performed to obtain the curve of the CD signals vs temperature, based on which the Tm value was calculated. Based on the Tm value, the stability of the formed helical structure of the inhibitor and N39 was judged.

[9] = circular dichroism secondary structure analysis of the inhibitors themselves; format: physicochemical; details: 10 μM, 20 μM and 40 μM in PBS
Experimental: as §4
For easy analysis, the α-helix content and the Tm value of the inhibitors were measured at concentrations of 10 μM, 20 μM, and 40 μM (PBS solution), respectively.

[10] = test system: HXB2-mediated cell fusion (HL2/3 effector cells, TZM-b1 target cells); format: cell-based, HIV-1
Experimental: HIV-1 mediated cell fusion inhibition assay: the effector cells (HL2/3 cells) and target cells (TZM-b1 cells) were provided by the AIDS Reagent Program of National Institutes of Health (NIH) (catalog numbers: 1294 and 8129, respectively). The both cells were adherent cells and were cultured in a DMEM cell culture medium containing ampicillin/streptomycin double antibiotics and 10% fetal bovine serum (FBS). The TZM-b1 was first added to a 96-well cell culture plate (1×10^4 cells/well), and cultured overnight at 37° C. and 5% CO2. The test substance was diluted with the DMEM cell culture medium by 3 folds and mixed with HL2/3 effector cells (3×10^4 cells/well), then added to the TZM-b1 target cells, and further cultured for 6 hours to fully fuse. The activity of luciferase (relative fluorescence units, RLU) was then determined using a luciferase reporter gene kit from Promega company according to the instructions. The inhibition rate of each sample at each concentration was calculated, and the half effective inhibitory concentration (IC50 value) was calculated using GraphPad Prism Software 2.01.

[11] = test system: HIV-1 strain JRCSF; format: cell-based
Experimental: as §2

Work on enfuvirtide yielded an IC50 ([1]; NL4-3D36G mutant, Example 4, read-out: IC50) of 13600 pM, an IC50 [2] of 41400 pM and an IC50 [3] of 152000 pM. For the same molecule, the “inhibitory activity against T-20 resistant strains (in words)” value [4] was “significantly increased by several folds”, the “inhibitory activity against HIV-2 (in words)” value [5] was “extremely weak” and the “inhibitory activity against SIV (in words)” value [6] was “extremely weak”. The “maximum serum dilution multiple for inhibiting 50% of NL4-3 infectivity” value ([7]; 2 hour after injection) was 45 folds, the “maximum serum dilution multiple for inhibiting 50% of NL4-3 infectivity” value ([7]; 4 hour after injection) was 46 folds and the “helix content of the complex with N39” value [8] was 48.6%. The “secondary structure of the inhibitor itself (in words)” value [9] was “irregular disorder structure”.

With `CCCCCCCCCCCCCCCC(=O)NCCCC[C@H](NC(=O)[C@H](CCC(=O)O)NC(=O)[C@H](CC(C)C)NC(=O)[C@H](CCCCN)NC(=O)[C@H](CCCCN)NC(=O)[C@H](CC(C)C)NC(=O)[C@H](CCC(=O)O)NC(=O)[C@H](CCC(=O)O)NC(=O)[C@H](CCC(=O)O)NC(=O)[C@H](CC(N)=O)NC(=O)[C@H](CCCCN)NC(=O)[C@H](CCCCN)NC(=O)[C@H](CCC(N)=O)NC(=O)[C@H](CCC(N)=O)NC(=O)[C@H](CCC(=O)O)NC(=O)[C@H](CCC(=O)O)NC(=O)[C@H](CO)NC(=O)[C@H](CCCCN)NC(=O)[C@H](CCCCN)NC(=O)[C@@H](NC(=O)[C@H](CC(C)C)NC(=O)[C@H](CCC(=O)O)NC(=O)[C@H](CCC(=O)O)NC(=O)[C@@H](NC(=O)[C@H](CC(C)C)NC(=O)[C@H](CO)NC(=O)[C@@H](NC(=O)[C@H](Cc1ccc(O)cc1)NC(C)=O)[C@@H](C)O)[C@@H](C)CC)[C@@H](C)CC)C(N)=O` [LP-50] (Ac-YTSLIEELIKKSEEQQKKNEEELKKLEK(Palmitoyl)-NH2) the IC50 ([10]; HXB2-cell fusion, read-out: IC50 for inhibiting cell fusion) was 21 pM, the “inhibitory activity as folds of that of T-20” value ([10]; HXB2-mediated cell fusion, relative to T-20) was 1151 folds and the “inhibitory activity as folds of that of LP-40” value ([10]; cell fusion, relative to LP-40) was 20 folds. The IC50 ([1]; Entry of NL4-3 (D36G), read-out: IC50 for inhibiting pseudovirus) was 7 pM, the “inhibitory activity as folds of that of T-20” value ([1]; NL4-3 pseudovirus entry, relative to T-20) was 1345 folds and the “inhibitory activity as folds of that of LP-40” value ([1]; pseudovirus, relative to LP-40) was 63 folds. For the same molecule, the “inhibitory activity as folds of that of T-20” value ([11]; JRCSF replication, relative to T-20) was 226 folds, the IC50 ([11]; Replication of JRCSF, read-out: IC50 for inhibiting replicative virus) was 23 pM and the “inhibitory activity as folds of that of LP-40” value ([11]; replicative virus, relative to LP-40) was 12 folds. For the same molecule, the IC50 [2] was 41 pM, the “inhibitory activity against different subtypes of HIV-1 as folds of T-20” value ([2]; relative to T-20, from average IC50) was 1010 folds and the “inhibitory activity against T-20 resistant strains (in words)” value [4] was “further improved by hundreds or even thousands of folds”. The “inhibitory activity against HIV-2 (in words)” value [5] was “extremely potent inhibitory activity”, the “inhibitory activity against SIV (in words)” value [6] was “extremely potent inhibitory activity” and the “Tm value of the complex with N39” value [8] was 63.3 °C. The “secondary structure of the inhibitor itself (in words)” value [9] was “distinct helical structure”.
